Patent US4612311A, “1,2,4-benzothiadiazine oxide derivatives” (Warner-Lambert Company, priority 1984, dated 1986)
pKd: −log10 of the molar value.

How the values were obtained:
benzodiazepine rec. [1] = assay: GABA-Ratio, benzodiazepine receptor binding; details: in words
[2] = Punished exploratory behavior (4 plate test), anxiolytic activity; format: in vivo, male mice (NMRI); details: for Anxiolytic Activity (punished exploration), increase: 30 min before test, control = 100%
Procedure: (§1) Experimental animals used were male mice (NMRI, origin: Ivanovas, Kissleg) of weight 18 to 25 g. The animals were allowed food and water ad lib.. but, according to the test, they were fasted for two to 16 hours before the beginning of the test with water allowed ad lib.
(§2) The substances under test were applied orally by means of a stomach tube in a 0.8% methocel suspension 30 minutes before the start of the test.
(§3) The model for testing for anxiolytic activity is based on the experimental creation of a conflict in the animals by counteracting the natural exploratory tendencies of the animals with an anxiety-inducing stimulus (aversive foot shock, aversive illumination).
The test box has a metal base consisting of four rectangles of equal size. After placing the animal in the box it can freely explore for 15 seconds. Then every transition from one metal plate of the base to another is punished by a mild foot shock (1.5 mA for 0.5 seconds). The number of tolerated foot shocks within one minute is the measure of the anxiolytic activity of the substance. The average number of accepted foot shock by the control animals was taken as 100%. Ten animals were examined per dose.

Ataxia threshold = format: in vivo, male mice (NMRI); details: oral, ">": no effect up to this highest examined dosage
Procedure: as §1, §2

[3] = Effect on duration of hexobarbital anesthesia (hypnotic activity); format: in vivo, male mice (NMRI); details: hexobarbital sodium 70 mg/kg i.v.
Procedure: as §1, §2
Seventy mg/kg (10 ml/kg body weight) of hexobarbital sodium were injected into a tail vein within a period of 15 seconds. Ten animals were used per dose. The criterion for the end of anesthesia was the moment when the animal roused itself from lying on its side. The average duration of anesthesia in the control animals was taken as 100 and the increases measured were calculated as a percentage of this value.

[4] = Motility test (spontaneous motility); format: in vivo, male mice (NMRI); details: 30 min
Procedure: as §1, §2
The spontaneous motility was measured simultaneously for a test group of five animals each for 30 minutes in two opaque cages (length 50 cm, width 25 cm, height 30 cm) using three infrared light barriers in each case. The sum of the impulses registered for the control group during this period was taken as 100% and the deviation in the case of the test group from this value was calculated in percent.

LD50 = assay: LD50; parameters: species or system male mice (NMRI); details: mouse, in vivo; oral; ">": no effect up to this highest examined dosage
Procedure: as §1, §2

benzodiazepine rec. [5] = assay: Receptor binding: benzodiazepine rec.
[6] = Unpunished exploratory behavior (light-dark preference), anxiolytic activity; format: in vivo, male mice (NMRI); details: 30 min before test, control = 100%
Procedure: as §1, §2, §3
The testing equipment consists of a larger, brightly illuminated compartment and a smaller dark compartment. The animal is placed in the dark compartment and observed for ten minutes. The number of transitions between the compartments and the time spent in the two compartments are measured. The average number of transitions between the compartments of the control animals is taken as 100%. Ten animals were tested per dose.

Structure (SMILES)	GABA-Ratio, agonist character (benzodiazepine rec. [1])	Anxiolytic Activity (punished exploration), increase ([2]; 15 mg/kg oral)	Ataxia Threshold (Ataxia threshold)	LD50 (LD50)	pKd (benzodiazepine rec. [5])	Hypnotic Activity (increase in sleep time) ([3]; 25 mg/kg oral)	further results
O=S1(c2ccccc2)=Nc2ncnn2-c2ccc(Cl)cc21 (racemic) [Example 4a, (±)-7-Chloro-5-phenyl-[1,2,4]triazolo[5,1-c][1,2,4]benzothiadiazine-5-oxide]	part. ago.	45%	> 100 mg/kg	> 400 mg/kg	5.46	–	Hypnotic Activity (increase in sleep time) ([3]; 100 mg/kg oral): 224%; Spontaneous Motility (effect in words) ([4]; 100 mg/kg oral): no effect
CN1C(=O)CN=C(c2ccccc2)c2cc(Cl)ccc21 [Diazepam, reference compound]	–	–	5 mg/kg	–	7.19	–	Ataxia Threshold (Ataxia threshold; listed as diazepam): approximately 5 mg/kg; Anxiolytic Activity (unpunished exploration), increase ([6]; 2 mg/kg oral): 43%; Anxiolytic Activity (unpunished exploration), decrease ([6]; 5 mg/kg oral): 33%; Hypnotic Activity (increase in sleep time) ([3]; 2 mg/kg oral): 286%; Hypnotic Activity (increase in sleep time) ([3]; 4 mg/kg oral): 320%; Spontaneous Motility, decrease ([4]; 5 mg/kg oral, control = 100%): 67%
O=S1(c2ccccc2)=Nc2ncnn2-c2cc(Cl)c(Br)cc21 (racemic) [Example 4b, (±)-7-Bromo-8-chloro-5-phenyl-[1,2,4]triazolo[5,1-c][1,2,4]benzothiadiazine-5-oxide]	–	–	> 400 mg/kg	> 400 mg/kg	4.00	21%	Anxiolytic Activity (punished exploration), increase ([2]; 12.5 mg/kg oral): 34%; Spontaneous Motility, increase ([4]; 12.5 mg/kg oral, control = 100%): 83%
Cc1nc2n(n1)-c1ccc(Cl)cc1S(=O)(c1cccc(Cl)c1)=N2 (racemic) [Example 1c, (±)-7-Chloro-5-(3-chlorophenyl)-2-methyl-[1,2,4]triazolo[5,1-c][1,2,4]benzothiadiazine-5-oxide]	–	35%	> 100 mg/kg	> 400 mg/kg	5.00	–	Hypnotic Activity (increase in sleep time) ([3]; 15 mg/kg oral): 6%; Spontaneous Motility, increase ([4]; 15 mg/kg oral, control = 100%): 12%
Cc1nc2n(n1)-c1ccc(Cl)cc1S(=O)(c1ccccc1)=N2 (racemic) [Example 1a, (±)-7-Chloro-2-methyl-5-phenyl-[1,2,4]triazolo[5,1-c][1,2,4]benzothiadizine-5-oxide]	part. agonist	–	> 100 mg/kg	1600 mg/kg	5.82	123%	Anxiolytic activity (in words) ([2]; 7.5 to 45 mg/kg, compared with diazepam 1 to 4 mg/kg): comparable with that of diazapam (1 to 4 mg/kg); Hypnotic Activity (increase in sleep time) ([3]; 50 mg/kg oral): 175%
Cc1nc2n(n1)-c1ccc(Cl)cc1S(=O)(c1ccccc1Cl)=N2 (racemic) [Example 2c, (±)-7-Chloro-2-methyl-5-(2-chlorophenyl)[1,2,4]triazolo[5,1-c][1,2,4]benzothiadiazine-5-oxide]	part. ago.	–	> 100 mg/kg	> 400 mg/kg	7.70	–	Anxiolytic Activity (punished exploration), increase ([2]; 30 mg/kg oral): 66%; Hypnotic Activity (increase in sleep time) ([3]; 30 mg/kg oral): 96%; Spontaneous Motility, increase ([4]; 30 mg/kg oral, control = 100%): 6%
